Article PMC12221113, “Deferasirox Derivatives as Inhibitors of Kallikrein‐Related Peptidases Associated to Neurodegenerative Diseases” (Chemmedchem, 2025)
Read-outs that look alike come from different tables or passages of the source.

Legend:
KLK8 = biological target: T1, KLK8 (Homo sapiens, UniProt O60259); experiment: KLK8 fluorogenic enzyme inhibition assay (Boc-VPR-AMC)
T1 sequence (O60259 33-260): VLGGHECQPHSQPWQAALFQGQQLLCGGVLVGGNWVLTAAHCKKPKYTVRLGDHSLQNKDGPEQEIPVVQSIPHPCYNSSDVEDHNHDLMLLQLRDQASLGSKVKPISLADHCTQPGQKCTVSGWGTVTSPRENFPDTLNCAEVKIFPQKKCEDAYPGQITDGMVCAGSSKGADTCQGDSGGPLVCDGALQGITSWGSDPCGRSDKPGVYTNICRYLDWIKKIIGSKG
Description: (§1) All enzyme stocks were stored at −20 °C and purchased from R&D Systems as proenzymes (KLK6, KLK8, KLK13) or as mature and active forms (KLK5). Activation of KLK6, KLK8, and KLK13 is performed in optimized buffers. The activation reaction is initiated by Lysyl‐Endopeptidase at 2.5 mU mL^−1 (Wako Bioproducts). The activation reaction is stopped by diluting the enzyme to 0.5 μg mL^−1 in assay buffer (50 mM Tris, 1 M Citrate, 0.05% w/v Brij‐35, pH 8) to obtain an active enzyme stock. KLK1 was purchased from R & D Systems as pro‐KLK1. Activation of KLK1 is performed in 50 mM Tris‐HCl, 10 mM CaCl2, 150 mM NaCl, 0.05% Brij‐35, pH 7.5. The activation reaction is initiated by bacterial thermolysin at 0.4 μg mL^−1 (Sigma‐Aldrich) and stopped by addition of 100 mM EDTA (Sigma‐Aldrich) to obtain an active KLK1 stock at the same concentration of 100 μg mL^−1. […] All enzyme stocks were stored at −20 °C. H‐PFR‐AMC (KLK1), Boc‐VPR‐AMC (KLK5, KLK8, KLK13), Boc‐QAR‐AMC (KLK6, Plasmin), substrates were purchased from Bachem. […] Plasmin (Sigma‐Aldrich) was purchased in mature and active form.
(§2) Compounds were screened on KLKs using a BMG Fluostar microplate reader (black 96‐well microplates). Hit compounds were screened on the selected group of enzymes using optimized concentrations and buffers (KLK1 0.8 nM, KLK4 10 nM, KLK5 0.2 nM; KLK6 1.9 nM; KLK7 6 nM; KLK8 0.2 nM; KLK11 5.2 nM, KLK13 0.47 nM, KLK14 2.5 nM, plasmin 3.3 nM, thrombin 0.1 nM, tissue‐plasminogen activator (tPA) 0.1 nM, matriptase 1 nM, cathepsin L 2 nM) either in absence or prior preincubation in the presence of 100 μM of Fe^3+.
(§3) The proteases are first preincubated for 15 min with each compound (50 and 100 μM) or with DMSO (<2%, negative control) in a total volume of 85 μL of 50 mM Tris buffer, 1 M citrate, 0.05% Brij‐35, pH 7, 37 °C. The reaction is triggered by the appropriate substrate at the optimized concentration in 15 μL of 50 mM Tris buffer, 1 M citrate, 0.05% Brij‐35, pH 8 (H‐PFR‐AMC 100 μM; Boc‐VPR‐AMC 100 μM; Boc‐QAR‐AMC 100 μM; Meo‐Suc‐RPY‐AMC 150 μM, Z‐LR‐AMC 100 μM, Z‐GGR‐AMC 100 μM) and followed for 30 min at 37 °C. […] The release of the AMC fluorescent group is detected using the following wavelengths: λex = 360 nm and λem = 460 nm. The percent inhibition is calculated from Equation (1) where V 0 is the initial rate of the DMSO control, the initial rate in the presence of the inhibitor V i. (1) %inhibition=(1−(vi/v0))×100
(§4) The equation is entered in the Kaleidagraph 4.5 software for curve fitting f([I]) = % Inhibition, where [I] is the inhibitor concentration.
(§5) The mechanism of inhibition was determined by varying substrate and inhibitor concentrations, the type of inhibition and inhibition parameter (Ki or Ki′) are determined by Dixon's plots.

[1] = Calcein transchelation (calcein release) assay; format: physicochemical; conditions: calcein 100 nM, 4 h at room temperature; estimation, assay not fully quantitative; read-out: Apparent affinity (pseudo‐affinity constant Kd for Fe3+)
[2] = UV–vis spectroscopy of Fe3+ chelation and complex stability; format: physicochemical; conditions: activity buffer pH 7.4, 1:1 ratio, t = 0 to 240 min
Description: UV–vis analysis of DFX was first performed to monitor the chelation process and the stability of the Fe^3+ complex over time at a 1:1 ratio, typically representing the duration of inhibition assay (30 min to 4 h) (Figure S1, Supporting Information). In these conditions of pH (7.4) and ligand‐to‐iron ratio and according to Steinhauser et al. the main species in solution is assigned to [Fe(DFX)2]^3−.^[ [49] ^] Indeed, we aimed to explore not only the chelation properties but also the impact of the chelated species on enzyme inhibition.
2.c. Chelation properties, iron interactions, and selectivity profiles of selected compounds targeting KLK activity.
Figure S2: Stability of the chelated species as monitored by spectrophotometry. UV/VIS spectra of molecules alone using activity buffer at pH 7.4 (in orange at 500 µM) or in the presence of FeCl3 (ratio of 1:1) at different times (t = 0 in red, 30 min in black, 60 min in blue and 240 min in green). The purple trace corresponds to iron only at 500 µM All data are representative of 2 independent experiments performed in duplicate. […]

KLK1 = KLK1 (Homo sapiens, UniProt P06870); experiment: KLK1 fluorogenic enzyme inhibition assay (H-PFR-AMC)
KLK1, sequence (P06870 25-262): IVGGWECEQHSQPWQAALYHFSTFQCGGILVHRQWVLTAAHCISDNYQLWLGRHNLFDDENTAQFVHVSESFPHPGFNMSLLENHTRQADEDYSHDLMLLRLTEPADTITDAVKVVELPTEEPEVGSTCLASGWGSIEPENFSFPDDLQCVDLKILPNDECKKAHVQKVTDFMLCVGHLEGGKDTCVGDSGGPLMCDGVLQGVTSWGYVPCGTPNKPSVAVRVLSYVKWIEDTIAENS
Description: as §1, §2, §3, §4, §5

KLK6 = KLK6 (Homo sapiens, UniProt Q92876); experiment: KLK6 fluorogenic enzyme inhibition assay (Boc-QAR-AMC)
Description: as §1, §2, §3, §4, §5

[3] = IC50 KLK8, 15 min preincubation at 37 °C, NI = not a hit (not above 50% inhibition at 50 μM)
[4] = IC50 KLK1, 15 min preincubation at 37 °C, NI = not a hit (not above 50% inhibition at 50 μM)

| Compound | IC50 (KLK8) | IC50 (KLK1; [4]) | IC50 (KLK6) | further results |
| --- | --- | --- | --- | --- |
| N#Cc1ccc(-n2nc(-c3ccccc3O)nc2-c2ccccc2O)cc1 [3o] | > 50 µM |  |  |  |
| Oc1ccccc1-c1nc(-c2ccccc2O)n(-c2ccc(Br)cc2)n1 [3p] | > 50 µM |  |  |  |
| COc1ccc(-n2nc(-c3ccccc3O)nc2-c2ccccc2O)cc1 [3q] |  |  |  | IC50 (KLK8; [3]): > 50 µM |
| NS(=O)(=O)c1ccc(-n2nc(-c3ccccc3O)nc2-c2ccccc2O)cc1 [3s] | > 50 µM |  |  |  |
| O=S(=O)(O)c1ccc(-n2nc(-c3ccccc3O)nc2-c2ccccc2O)cc1 [3t] | 29.5 ± 1.4 µM |  |  | Kd [1]: 0.165 ± 0.017 nM; UV–vis spectrum in the presence of FeCl3 (iron complex formation) [2]: appearance of an absorption band with a maximum at 468 nm |
| NC(=O)c1ccc(-n2nc(-c3ccccc3O)nc2-c2ccccc2O)cc1 [3u] | 23.7 ± 2.3 µM |  |  | Kd [1]: 0.093 ± 0.007 nM |
| Oc1ccccc1-c1nc(-c2ccccc2O)n(-c2ccc(-c3nnn[nH]3)cc2)n1 [3v] | 44.1 ± 1.7 µM |  |  |  |
| [Cl][Fe]([Cl])[Cl] [Fe3+] |  |  |  | IC50 (KLK1; read-out: Pseudo-IC50 of Fe3+ on KLK1, Figure S4 A, curve fit y=(100*M0)/(M0+M2)): 989 µM; IC50 (KLK6; read-out: Pseudo-IC50 of Fe3+ on KLK6, Figure S4 B, curve fit y=(100*M0)/(M0+M2)): 1320 µM; IC50 (KLK8; read-out: Pseudo-IC50 of Fe3+ on KLK8, Figure S4 C, curve fit y=(100*M0)/(M0+M2)): 1120 µM |
| O=C(O)c1ccc(-n2nc(-c3ccccc3)nc2-c2ccccc2O)cc1 [compound 9] | 46.8 ± 0.2 µM | > 50 µM | > 50 µM | UV–vis spectrum in the presence of FeCl3 (iron complex formation) [2]: no changes in the absorption spectra |
| COc1ccc(-c2nc(-c3ccccc3O)n(-c3ccc(C(=O)O)cc3)n2)cc1 [compound 10] | 33.4 ± 1.1 µM | > 50 µM | > 50 µM |  |
| COc1ccc(-c2nc(-c3ccccc3O)nn2-c2ccc(C(=O)O)cc2)c(O)c1 [compound 13] | 24.8 ± 1.3 µM | > 50 µM | > 50 µM | Kd [1]: 0.077 ± 0.019 nM; UV–vis spectrum in the presence of FeCl3 (iron complex formation) [2]: a similar absorption band is observed |
| O=C(O)c1ccc(-n2nc(-c3ccccc3O)nc2-c2ccc(O)cc2O)cc1 [compound 14] | 38.3 ± 3.5 µM | > 50 µM | > 50 µM |  |
| COc1ccc(-c2nc(-c3cccnc3O)n(-c3ccc(C(=O)O)cc3)n2)cc1 [compound 19] |  |  |  | IC50 (KLK1; read-out: IC50 KLK1, 15 min preincubation at 37 °C, NI = not a hit (not above 50% inhibition at 50 μM)): > 50 µM |
| COc1ccccc1-c1nc(-c2ccccc2OC)n(-c2ccc(C(=O)O)cc2)n1 [compound 21] | > 50 µM | > 50 µM | > 50 µM |  |
| Oc1ccccc1-c1noc(-c2ccccc2O)n1 [compound 23] |  |  |  | IC50 (KLK8; [3]): > 50 µM |
